Measurements: patent US20250229272A1, “Headspace Eliminating Microtiter Plate Lid” (Agilent Technologies, Inc., priority 2022, published 2025)

Tested on: mitochondrial network
Assay: MitoTracker imaging of the mitochondrial network in cells incubated with compounds (Cytation 5)
Type: cell-based
Conditions: cells loaded with MitoTracker and hoechst; imaged while incubating with compounds; compared to the control; FIG. 15
Method: Cells were loaded with MitoTracker and hoechst as per manufactures instructions. Cells were washed with media then the media was replaced with media containing MitoXpress Xtra. Imaging was carried out as the plate was incubating with compounds using a Cytation 5 with a RFP LED/Filter set. Then, the lid of the present disclosure was placed onto the base of the plate assembly and MitoXpress Assay was run as normal.
The effects in structure are then reflected in the rates of oxygen consumption showing a direct correlation between structure and function. Different compounds lead to different effects. Some promote fusion, some inhibit fusion, some fission some limit fission. The novel insight with this method is to correlate changes in structure of the mitochondria to functional changes in respiration as shown in FIG. 16 in the same well for the first time.

**Q.** How did the “effects of compounds on the mitochondrial network” value (“effects of compounds” for short) turn out when `C=C(C)[C@H]1Cc2c(ccc3c2O[C@@H]2COc4cc(OC)c(OC)cc4[C@@H]2C3=O)O1` [Rotenone] was run?
**A.** cause the network to condense, and divide

**Q.** Which “effects of compounds” value does the source give for `CC[C@H]1/C=C/C=C/C[C@@H](C)[C@H](O)[C@@](C)(O)C(=O)[C@@H](C)[C@H](O)[C@@H](C)C(=O)[C@@H](C)[C@H](O)[C@@H](C)/C=C/C(=O)O[C@@H]2[C@H](C)[C@H](CC1)O[C@]1(CC[C@H](C)[C@H](C[C@@H](C)O)O1)[C@H]2C` [Oligomycin] here?
**A.** cause the network to condense, and divide

**Q.** How did the “effects of compounds” value turn out when Antimycin was run?
**A.** cause the network to condense, and divide
